Assay results reported in ChEMBL document CHEMBL1921790, “Synthesis and antimicrobial activity of brominated resorcinol dimers” (Bioorg Med Chem Lett, 2011).
In brackets after ≈: the same amount, converted by molar mass.

Columns and labels:
Aspergillus fumigatus = test: Antifungal activity against Aspergillus fumigatus HIC 6094 after 48 to 72 hrs by two fold serial dilution method; type: functional
Proteus vulgaris = test: Antibacterial activity against Proteus vulgaris ATCC 3851 after 24 hrs by two fold serial dilution method; type: functional; details: ATCC 3851, 24 h
Candida albicans = test: Antifungal activity against Candida albicans ATCC 10231 after 24 to 72 hrs by two fold serial dilution method; type: functional
Trichophyton rubrum = test: Antifungal activity against Trichophyton rubrum IFO 9185 after 48 to 72 hrs by two fold serial dilution method; type: functional
[1] = system: Trichophyton mentagrophytes; test: Antifungal activity against Trichophyton mentagrophytes IFO 40996 after 48 to 72 hrs by two fold serial dilution method; type: functional
Bacillus subtilis = test: Antibacterial activity against Bacillus subtilis ATCC 6633 after 24 hrs by two fold serial dilution method; type: functional; details: ATCC 6633, 24 h
Micrococcus luteus = test: Antibacterial activity against Micrococcus luteus IFC 12708 after 24 hrs by two fold serial dilution method; type: functional; details: IFC 12708, 24 h
Escherichia coli = test: Antibacterial activity against Escherichia coli ATCC 25922 after 24 hrs by two fold serial dilution method; type: functional; details: ATCC 25922, 24 h
Salmonella typhimurium = test: Antibacterial activity against Salmonella Typhimurium ATCC 14028 after 24 hrs by two fold serial dilution method; type: functional, Salmonella enterica subsp. enterica serovar Typhimurium; details: Salmonella enterica, ATCC 14028, 24 h
Staphylococcus aureus = test: Antibacterial activity against Staphylococcus aureus ATCC 6538p after 24 hrs by two fold serial dilution method; type: functional
Isocitrate lyase = Isocitrate lyase (Candida albicans, UniProt Q9P8Q7); test: Inhibition of Candida albicans isocitrate lyase after 30 mins
Chain of Isocitrate lyase (Q9P8Q7 whole entry): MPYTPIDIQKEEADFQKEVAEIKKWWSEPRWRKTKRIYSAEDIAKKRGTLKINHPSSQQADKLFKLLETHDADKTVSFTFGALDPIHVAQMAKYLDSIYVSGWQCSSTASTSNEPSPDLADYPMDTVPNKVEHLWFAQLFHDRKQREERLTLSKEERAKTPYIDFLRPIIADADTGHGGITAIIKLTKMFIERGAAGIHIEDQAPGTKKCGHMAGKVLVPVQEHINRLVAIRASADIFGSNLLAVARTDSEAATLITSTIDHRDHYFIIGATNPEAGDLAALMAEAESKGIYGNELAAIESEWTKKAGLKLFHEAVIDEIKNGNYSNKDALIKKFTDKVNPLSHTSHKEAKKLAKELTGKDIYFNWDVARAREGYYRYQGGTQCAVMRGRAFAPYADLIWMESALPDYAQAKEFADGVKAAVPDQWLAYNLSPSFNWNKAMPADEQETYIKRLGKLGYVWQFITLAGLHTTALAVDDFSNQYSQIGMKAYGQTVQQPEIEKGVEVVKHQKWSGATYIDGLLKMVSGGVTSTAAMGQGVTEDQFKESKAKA

MIC (Aspergillus fumigatus) [µg/mL]	MIC (Proteus vulgaris) [µg/mL]	MIC (Candida albicans) [µg/mL]	MIC (Trichophyton rubrum) [µg/mL]	MIC [1] [µg/mL]	MIC (Bacillus subtilis) [µg/mL]	MIC (Micrococcus luteus) [µg/mL]	MIC (Escherichia coli) [µg/mL]	MIC (Salmonella typhimurium) [µg/mL]	MIC (Staphylococcus aureus) [µg/mL]	IC50 (Isocitrate lyase) [µM]	SMILES
100 (≈ 187 µM)	1.56 (≈ 2.92 µM)	100 (≈ 187 µM)	> 100	100 (≈ 187 µM)	1.56 (≈ 2.92 µM)	1.56 (≈ 2.92 µM)	100 (≈ 187 µM)	6.25 (≈ 11.7 µM)	6.25 (≈ 11.7 µM)	17.9	Oc1cc(O)c(C(c2cc(Br)c(O)cc2O)c2c(Cl)cccc2Cl)cc1Br
> 100	100 (≈ 231 µM)	> 100	> 100	> 100	50 (≈ 116 µM)	50 (≈ 116 µM)	> 100	100 (≈ 231 µM)	100 (≈ 231 µM)	41.2	O=[N+]([O-])c1ccc(C(c2ccc(O)cc2O)c2cc(Br)c(O)cc2O)cc1 (configuration not stated)
50 (≈ 104 µM)	0.78 (≈ 1.62 µM)	50 (≈ 104 µM)	100 (≈ 207 µM)	100 (≈ 207 µM)	0.78 (≈ 1.62 µM)	0.78 (≈ 1.62 µM)	> 100	1.56 (≈ 3.24 µM)	0.78 (≈ 1.62 µM)	25.9	Oc1ccc(C(c2cc(Br)c(O)cc2O)c2cc(Br)c(O)cc2O)cc1
> 100	25 (≈ 48.9 µM)	> 100	> 100	> 100	12.5 (≈ 24.5 µM)	12.5 (≈ 24.5 µM)	> 100	25 (≈ 48.9 µM)	25 (≈ 48.9 µM)	20.7	O=[N+]([O-])c1ccc(C(c2cc(Br)c(O)cc2O)c2cc(Br)c(O)cc2O)cc1
> 100	6.25 (≈ 14.5 µM)	100 (≈ 231 µM)	> 100	> 100	6.25 (≈ 14.5 µM)	12.5 (≈ 28.9 µM)	> 100	6.25 (≈ 14.5 µM)	12.5 (≈ 28.9 µM)	69.9	O=[N+]([O-])c1cccc(C(c2ccc(O)cc2O)c2cc(Br)c(O)cc2O)c1 (configuration not stated)
100 (≈ 196 µM)	1.56 (≈ 3.05 µM)	50 (≈ 97.8 µM)	100 (≈ 196 µM)	100 (≈ 196 µM)	1.56 (≈ 3.05 µM)	1.56 (≈ 3.05 µM)	> 100	3.12 (≈ 6.1 µM)	3.12 (≈ 6.1 µM)	26.8	O=[N+]([O-])c1cccc(C(c2cc(Br)c(O)cc2O)c2cc(Br)c(O)cc2O)c1
> 100	12.5 (≈ 27.4 µM)	> 100	> 100	> 100	6.25 (≈ 13.7 µM)	12.5 (≈ 27.4 µM)	> 100	12.5 (≈ 27.4 µM)	12.5 (≈ 27.4 µM)	78.7	Oc1ccc(C(c2cc(Br)c(O)cc2O)c2c(Cl)cccc2Cl)c(O)c1 (configuration not stated)

Continued, molecule first:

SMILES	MIC (Aspergillus fumigatus) [µg/mL]	MIC (Proteus vulgaris) [µg/mL]	MIC (Candida albicans) [µg/mL]	MIC (Trichophyton rubrum) [µg/mL]	MIC [1] [µg/mL]	MIC (Bacillus subtilis) [µg/mL]	MIC (Micrococcus luteus) [µg/mL]	MIC (Escherichia coli) [µg/mL]	MIC (Salmonella typhimurium) [µg/mL]	MIC (Staphylococcus aureus) [µg/mL]	IC50 (Isocitrate lyase) [µM]
CC1(C)S[C@@H]2[C@H](NC(=O)[C@H](N)c3ccccc3)C(=O)N2[C@H]1C(=O)O [AMPICILLIN]	1.56 (≈ 4.46 µM)	0.78 (≈ 2.23 µM)	0.78 (≈ 2.23 µM)	1.56 (≈ 4.46 µM)	1.56 (≈ 4.46 µM)	0.39 (≈ 1.12 µM)	1.56 (≈ 4.46 µM)	6.25 (≈ 17.9 µM)	0.78 (≈ 2.23 µM)	0.39 (≈ 1.12 µM)	–
CCCCCC(c1ccc(O)cc1O)c1ccc(O)cc1O	> 100	12.5 (≈ 41.3 µM)	> 100	> 100	> 100	6.25 (≈ 20.7 µM)	12.5 (≈ 41.3 µM)	100 (≈ 331 µM)	12.5 (≈ 41.3 µM)	12.5 (≈ 41.3 µM)	167
CCCCCC(c1cc(Br)c(O)cc1O)c1cc(Br)c(O)cc1O	12.5 (≈ 27.2 µM)	1.56 (≈ 3.39 µM)	25 (≈ 54.3 µM)	12.5 (≈ 27.2 µM)	25 (≈ 54.3 µM)	1.56 (≈ 3.39 µM)	1.56 (≈ 3.39 µM)	50 (≈ 109 µM)	3.12 (≈ 6.78 µM)	3.12 (≈ 6.78 µM)	28
CCCCCC(c1ccc(O)cc1O)c1cc(Br)c(O)cc1O (configuration not stated)	50 (≈ 131 µM)	3.12 (≈ 8.18 µM)	50 (≈ 131 µM)	50 (≈ 131 µM)	50 (≈ 131 µM)	3.12 (≈ 8.18 µM)	3.12 (≈ 8.18 µM)	100 (≈ 262 µM)	3.12 (≈ 8.18 µM)	6.25 (≈ 16.4 µM)	46.6
O=C(O)CC[N+](=O)[O-]	–	–	–	–	–	–	–	–	–	–	6
Oc1ccc(C(c2ccc(O)cc2O)c2cc(Br)c(O)cc2O)cc1 (configuration not stated)	> 100	3.12 (≈ 7.74 µM)	> 100	> 100	> 100	3.12 (≈ 7.74 µM)	3.12 (≈ 7.74 µM)	> 100	6.25 (≈ 15.5 µM)	6.25 (≈ 15.5 µM)	90.5
